Data set [1] deals with engineered CD8+ and CD4+ T cells. Briefly: T cell expansion of anti-CD19 CAR-transduced CD4+ and CD8+ T cells incubated with mTOR kinase inhibitor. Type of data set: cell-based. The method, then: Separate compositions of CD4+ and CD8+ cells were isolated from human leukapheresis samples by immunoaffinity-based enrichment and cryofrozen. The CD4+ and CD8+ cells of the compositions were subsequently thawed and activated by separately culturing the cells under stimulating conditions in the presence of anti-CD3/anti-CD28 magnetic beads and recombinant IL-2, IL-7 and/or IL-15 for approximately 20 hours. Cells were then transduced with a viral vector encoding an anti-CD19 chimeric antigen receptor (CAR). After transduction, the CD4+ and CD8+ cells were separately incubated in the presence of an mTOR kinase inhibitor, either Compound 155, Compound 63, or Compound 246, at various concentrations. For controls, cells were incubated with media only, DMSO vehicle, or with 200 nM PI-103. Incubation was carried out at 37° C. for approximately 8 days post-thaw with one media change, at which point the compounds were re-added to the culture media at the same concentration.
The percent of CD8+ and CD4+ T cells at the end of the process as compared to the amount of cells seeded for culture following the transduction is shown in FIG. 2. The cutoff for selecting a tolerated dose was set at 70% of the mean values of the media and DMSO controls.

The test system of another data set is Ribo-S6 phosphorylation. Put plainly: Inhibition of ribosomal protein S6 phosphorylation in stimulated primary human T cells (flow cytometry). Type of data set: cell-based. Here is the method:
The dose effect of exemplary mTOR kinase inhibitors in primary human T cells was assessed by monitoring inhibition of ribosomal protein S6.
CD4+ and CD8+ T cells were isolated by immunoaffinity-based enrichment from leukapheresis samples from human donor subjects. Isolated CD4+ and CD8+ T cells were mixed 1:1 and stimulated with anti-CD3/anti-CD28 magnetic beads in the presence of increasing concentrations of an mTOR kinase inhibitor, PI-103, Compound 155, Compound 63, or Compound 246. The T cell cultures were incubated overnight (approximately 16 hr) at 37° C. Following incubation in the presence of PI-103, Compound 155, Compound 63, or Compound 246, T cells were assessed for intracellular S6 phosphorylation and co-stained for surface expression of CD4 or CD8, by flow cytometry.

Where [2] appears, read: Homo sapiens, T-cell, CD8+ T cells, read-out: IC50 for inhibition of Ribo-S6 phosphorylation, CD8.
The mark [3] stands for this setting: Homo sapiens, CD4+ T cells, read-out: IC50 for inhibition of Ribo-S6 phosphorylation, CD4.
Setting [4] is: T-cell, primary human CD4+/CD8+ T cells mixed 1:1, anti-CD3/anti-CD28 beads, approximately 16 hr, read-out: IC50 for the inhibition of S6 phosphorylation in the T cells.

The structures appear in SMILES notation. Where two headings read alike, the source gives them in different places.

For `O=c1[nH]c2ncc(-c3ccc(-c4nc[nH]n4)cc3)nc2n1CCC1CCOCC1` [Compound 155, 6-(4-(2H-1,2,4-Triazol-3-yl)phenyl)-1-(2-(tetrahydro-2H-pyran-4-yl)ethyl)-1H-imidazo [4,5-b]pyrazine-2(3H)-one], in data set [1] (human), the “highest tolerated dose resulting in similar CD8 and CD4 T cell expansion as vehicle control” value is reported as 100 nM. Further, the IC50 (commonly the concentration that inhibits the measured activity by half) with Ribo-S6 phosphorylation (setting [2]) is 127 nM; with Ribo-S6 phosphorylation (setting [3]) it was 121 nM; in the data set on Ribo-S6 phosphorylation (setting [4]), approximately 100 nM.
Regarding `CO[C@H]1CC[C@H](N2C(=O)CNc3ncc(-c4ccc(C(C)(C)O)nc4)nc32)CC1` [Compound 246, 7-(6-(2-hydroxypropan-2-yl)pyridin-3-yl)-1-((1r,4r)-4-methoxycyclohexyl)-3,4-dihydropyrazino[2,3-b]pyrazin-2(1H)-one], the “highest tolerated dose resulting in similar CD8 and CD4 T cell expansion as vehicle control” value in data set [1] (cutoff 70% of mean of media and DMSO controls, approximately 8 days post-thaw) is 100 nM. The values for the half-maximal inhibitory concentration (IC50) in the data set with Ribo-S6 phosphorylation (setting [2]), with Ribo-S6 phosphorylation (setting [3]) and in the data set on Ribo-S6 phosphorylation (setting [4]) were 502 nM, 475 nM and approximately 500 nM, respectively.

The values above are taken from patent US20210254000A1, “PROCESS FOR PRODUCING A T CELL COMPOSITION” (Juno Therapeutics, Inc., priority 2017, published 2021).
